Laboratory results published in patent publication US9113629B2, “4-amino-6-(4-substituted-phenyl)-picolinates and 6-amino-2-(4-substituted-phenyl)-pyrimidine-4-carboxylates and their use as herbicides” (DOW AGROSCIENCES LLC, priority 2013, dated 2015).

Assays:
Experiment in all cases: Post-emergent Test III, herbicidal activity in wheat and barley
Assay type in all cases: in vivo
[1] = test system: HORSS: barley, including spring and winter (Hordeum vulgare); details: 21 days after application; for pest or weed control at 35 g/ha / pest or weed control at 70 g/ha: Hordeum vulgare, post-emergence, 504 h, read-out: Visual Gorowth Reduction (%) 21 days After Application HORSS; for pest or weed control at 35 g/ha: 35 g ai/ha; for pest or weed control at 70 g/ha: 70 g ai/ha; for GR20 HORSS: probit analysis, dose for 20 percent growth reduction (crop)
Procedure, shortened: (§1)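 GR20, GR50, GR80 and GR90 come from probit analysis of visual injury scores (0 = none, 100 = complete kill) taken 21 d after treatment. Foliar application was by track sprayer delivering 187 L/ha at five rates, from high down to 1/16×, onto greenhouse plants at the 2–3 leaf stage, with solvent-blank controls.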

[2] = test system: TRZSS: wheat, including spring and winter (Triticum aestivum); details: 21 days after application; for pest or weed control at 35 g/ha / pest or weed control at 70 g/ha: Triticum aestivum, post-emergence, 504 h, read-out: Visual Gorowth Reduction (%) 21 days After Application TRZSS; for pest or weed control at 35 g/ha: 35 g ai/ha; for pest or weed control at 70 g/ha: 70 g ai/ha; for GR20 TRZSS: probit analysis, dose for 20 percent growth reduction (crop)
Procedure, shortened: as §1

[3] = test system: SASKR: Russian thistle (Salsola iberica); details: 21 days after application; for pest or weed control at 35 g/ha / pest or weed control at 70 g/ha: Salsola tragus, post-emergence, 504 h, read-out: Visual Gorowth Reduction (%) 21 days After Application SASKR; for pest or weed control at 35 g/ha: 35 g ai/ha; for pest or weed control at 70 g/ha: 70 g ai/ha; for GR50 SASKR / GR80 SASKR: probit analysis; for GR50 SASKR: dose for 50 percent growth reduction; for GR80 SASKR: dose for 80 percent growth reduction
Procedure, shortened: as §1

[4] = test system: MATSS: scented mayweed (Matricaria chamomilla), pineappleweed (Matricaria matricarioides); details: 21 days after application; for pest or weed control at 35 g/ha / pest or weed control at 70 g/ha: Matricaria chamomilla, post-emergence, 504 h, read-out: Visual Gorowth Reduction (%) 21 days After Application MATSS; for pest or weed control at 35 g/ha: 35 g ai/ha; for pest or weed control at 70 g/ha: 70 g ai/ha; for GR50 MATSS / GR80 MATSS: probit analysis; for GR50 MATSS: dose for 50 percent growth reduction; for GR80 MATSS: dose for 80 percent growth reduction
Procedure, shortened: as §1

[5] = test system: VERPE: bird's-eye speedwell (veronica persica); details: 21 days after application; for pest or weed control at 35 g/ha / pest or weed control at 70 g/ha: Veronica persica, post-emergence, 504 h, read-out: Visual Gorowth Reduction (%) 21 days After Application VERPE; for pest or weed control at 35 g/ha: 35 g ai/ha; for pest or weed control at 70 g/ha: 70 g ai/ha; for GR50 VERPE / GR80 VERPE: probit analysis; for GR50 VERPE: dose for 50 percent growth reduction; for GR80 VERPE: dose for 80 percent growth reduction
Procedure, shortened: as §1

[6] = test system: VIOSS: wild pansy (Viola tricolor), field violet (Viola arvensis); details: 21 days after application; for pest or weed control at 35 g/ha / pest or weed control at 70 g/ha: Viola tricolor, post-emergence, 504 h, read-out: Visual Gorowth Reduction (%) 21 days After Application VIOSS; for pest or weed control at 35 g/ha: 35 g ai/ha; for pest or weed control at 70 g/ha: 70 g ai/ha; for GR50 VIOSS / GR80 VIOSS: probit analysis; for GR50 VIOSS: dose for 50 percent growth reduction; for GR80 VIOSS: dose for 80 percent growth reduction
Procedure, shortened: as §1

[7] = test system: KCHSC: kochia (Kochia scoparia); details: 21 days after application; for pest or weed control at 35 g/ha / pest or weed control at 70 g/ha: Bassia scoparia, post-emergence, 504 h, read-out: Visual Gorowth Reduction (%) 21 days After Application KCHSC; for pest or weed control at 35 g/ha: 35 g ai/ha; for pest or weed control at 70 g/ha: 70 g ai/ha; for GR50 KCHSC / GR80 KCHSC: probit analysis; for GR50 KCHSC: dose for 50 percent growth reduction; for GR80 KCHSC: dose for 80 percent growth reduction
Procedure, shortened: as §1

SMILES	pest or weed control at 35 g/ha [1] [%]	pest or weed control at 70 g/ha [1] [%]	GR20 HORSS [1] [g ai/ha]	pest or weed control at 35 g/ha [2] [%]	pest or weed control at 70 g/ha [2] [%]	GR20 TRZSS [2] [g ai/ha]	pest or weed control at 35 g/ha [3] [%]	pest or weed control at 70 g/ha [3] [%]	GR50 SASKR [3] [g ai/ha]	GR80 SASKR [3] [g ai/ha]	pest or weed control at 35 g/ha [4] [%]	pest or weed control at 70 g/ha [4] [%]	GR50 MATSS [4] [g ai/ha]	GR80 MATSS [4] [g ai/ha]	pest or weed control at 35 g/ha [5] [%]	pest or weed control at 70 g/ha [5] [%]	GR50 VERPE [5] [g ai/ha]	GR80 VERPE [5] [g ai/ha]	pest or weed control at 35 g/ha [6] [%]	pest or weed control at 70 g/ha [6] [%]	further results
COC(=O)c1nc(-c2ccc(Br)c(F)c2F)nc(N)c1OC [Compound 122, methyl 6-amino-2-(4-bromo-2,3-difluorophenyl)-5-methoxypyrimidine-4-carboxylate]	60 to 74	85 to 94	3	75 to 84	85 to 94	1	95 to 100	95 to 100	<17.5	<17.5	0 to 29	30 to 44	>140	>140	95 to 100	95 to 100	1	2	95 to 100	95 to 100	GR50 VIOSS [6]: 10 g ai/ha; GR80 VIOSS [6]: 21 g ai/ha; pest or weed control at 35 g/ha [7]: 85 to 94%; pest or weed control at 70 g/ha [7]: 95 to 100%; GR50 KCHSC [7]: 5 g ai/ha; GR80 KCHSC [7]: 14 g ai/ha
Nc1c(F)c(-c2ccc(I)c(F)c2)nc(C(=O)O)c1Cl [Compound 157]	85 to 94	95 to 100	1	75 to 84	75 to 84	1	75 to 84	85 to 94	11	34	60 to 74	75 to 84	21	64	30 to 44	60 to 74	50	>140	95 to 100	95 to 100	GR50 VIOSS [6]: 1 g ai/ha; GR80 VIOSS [6]: 4 g ai/ha; pest or weed control at 35 g/ha [7]: 85 to 94%; pest or weed control at 70 g/ha [7]: 85 to 94%; GR50 KCHSC [7]: 6 g ai/ha; GR80 KCHSC [7]: 18 g ai/ha
Nc1cc(-c2ccc(I)c(F)c2F)nc(C(=O)O)c1Cl [Compound 38]	85 to 94	85 to 94	1	85 to 94	85 to 94	1	60 to 74	60 to 74	17	68	60 to 74	85 to 94	21	56	30 to 44	60 to 74	42	112	95 to 100	95 to 100	GR50 VIOSS [6]: 13 g ai/ha; GR80 VIOSS [6]: 26 g ai/ha; pest or weed control at 35 g/ha [7]: 85 to 94%; pest or weed control at 70 g/ha [7]: 85 to 94%; GR50 KCHSC [7]: 1 g ai/ha; GR80 KCHSC [7]: 24 g ai/ha
